Experimental data as given in the supplement of paper PMC13380429.

Key:
Conditions in all cases: 72 h
[1] = tested on: U2OS; experiment: drug sensitivity score (DSS) for viability; higher = more toxic; extreme values may be limits of the assay
[2] = tested on: Vero E6; experiment: as above
[3] = tested on: Caco-2; experiment: as above
[4] = tested on: HepG2; experiment: as above
[5] = tested on: Calu-3; experiment: as above
[6] = tested on: U2OS; experiment: relative viability EC50 (midpoint between 100% and the lowest measured viability); higher = less toxic
[7] = tested on: Vero E6; experiment: as above
[8] = tested on: Caco-2; experiment: as above
[9] = tested on: HepG2; experiment: as above
[10] = tested on: Calu-3; experiment: as above
[11] = tested on: U2OS; experiment: cell viability relative to DMSO; higher = less toxic
[12] = tested on: Vero E6; experiment: as above
[13] = tested on: Caco-2; experiment: as above
[14] = tested on: HepG2; experiment: as above
[15] = tested on: Calu-3; experiment: as above

SMILES	drug sensitivity score [1]	drug sensitivity score [2]	drug sensitivity score [3]	drug sensitivity score [4]	drug sensitivity score [5]	relative viability EC50 [6] [µM]	relative viability EC50 [7] [µM]	relative viability EC50 [8] [µM]	relative viability EC50 [9] [µM]	relative viability EC50 [10] [µM]	cell viability ([11]; 1 nM) [%]	cell viability ([11]; 10 nM) [%]	cell viability ([11]; 100 nM) [%]	cell viability ([11]; 1000 nM) [%]	cell viability ([11]; 10000 nM) [%]	cell viability ([12]; 1 nM) [%]	cell viability ([12]; 10 nM) [%]	cell viability ([12]; 100 nM) [%]	cell viability ([12]; 1000 nM) [%]	cell viability ([12]; 10000 nM) [%]	cell viability ([13]; 1 nM) [%]	cell viability ([13]; 10 nM) [%]	cell viability ([13]; 100 nM) [%]	cell viability ([13]; 1000 nM) [%]	cell viability ([13]; 10000 nM) [%]	cell viability ([14]; 1 nM) [%]	cell viability ([14]; 10 nM) [%]	cell viability ([14]; 100 nM) [%]	cell viability ([14]; 1000 nM) [%]	cell viability ([14]; 10000 nM) [%]	cell viability ([15]; 1 nM) [%]	cell viability ([15]; 10 nM) [%]	cell viability ([15]; 100 nM) [%]	cell viability ([15]; 1000 nM) [%]	cell viability ([15]; 10000 nM) [%]
C[N+](C)(C)[C@@H](Cc1c[nH]c(=S)[nH]1)C(=O)O [L-ergothioneine]	0	0	0	0.7	0	> 10	> 10	> 10	> 10	> 10	96	94.1	98.2	92.4	95.6	94.3	94.9	96.5	109	106	100	101	114	105	97.3	83.4	88.9	102	98.8	80.4	97.2	97.7	95.2	108	95.4
COCCOc1ccc2c(c1)ncn2-c1ccc2cccc(N3CCC(N)CC3)c2n1	3.7	3.6	0	6.1	0	2.47	2.35	> 10	2.57	> 10	98.6	104	95.3	95.4	45.2	98.3	97.1	102	94.9	48.5	94.1	108	98.2	104	90.4	99.3	101	98.3	93.3	8.1	96	92.7	103	123	87.4
CCCC(=O)C1(c2ccccc2)CCN(C(=O)[C@@H](Cc2ccc(OC)cc2)NC(=O)[C@@H](N)Cc2cncn2C)CC1	0	0	0	0	0	> 10	> 10	> 10	> 10	> 10	98.8	97.9	104	102	97.7	102	101	98.7	102	97.1	108	94.9	97.3	102	99.7	95.4	105	97.8	118	95.3	98.3	100	96.6	101	106
